The record followed here is ChEMBL document CHEMBL5113438, “Discovery of highly potent and selective CRBN-recruiting EGFRL858R/T790M degraders in vivo” (Eur J Med Chem, 2022).

For data set [1], the system named is NCI-H1299. The experiment in a line: Induction of apoptosis in human NCI-H1299 cells assessed as necrotic cells at 0.1 uM incubated for 48 hrs by AnnexinV-FITC/propidium iodide staining based flow cytometry analysis (reference value: 0.24 % ). Type of data set: functional.
A further data set relates to HEK-293T. Put plainly: Cytotoxicity activity against HEK293T cells upto 300 uM incubated for 72 hrs by CCK-8 assay. Type of data set: toxicity, cell-based. As to conditions: human.
Data set [2] deals with NCI-H1299. The experiment in a line: Induction of apoptosis in human NCI-H1299 cells assessed as necrotic cells at 1.0 uM incubated for 48 hrs by AnnexinV-FITC/propidium iodide staining based flow cytometry analysis (reference value: 0.24 % ). Type of data set: functional.
The subject of data set [3] is NCI-H1299. The experiment in a line: Induction of apoptosis in human NCI-H1299 cells assessed as early apoptotic cells at 0.1 uM incubated for 48 hrs by AnnexinV-FITC/propidium iodide staining based flow cytometry analysis (reference value: 0.11 % ). The data set is classed as functional.
Data set [4] addresses Protein cereblon/Epidermal growth factor receptor (Homo sapiens, UniProt P00533+Q96SW2, L858R/T790M). Put plainly: Protac activity at CRBN/EGFR L858R/T790M mutant in human NCI-H1975 cells assessed as induction of EGFR degradation incubated for 72 hrs by Western blot analysis. Type of data set: cell-based.
The next data set relates to NCI-H1975. The experiment in a line: Induction of apoptosis in human NCI-H1975 cells assessed as late apoptotic cells at 0.1 uM incubated for 48 hrs by AnnexinV-FITC/propidium iodide staining based flow cytometry analysis (reference value: 1.35 % ). The data set is classed as functional.
Data set [5] is described as follows: Toxicity in BALB/c mouse xenografted with human NCI-H1975 cells assessed as drug tolerability at 10 mg/kg, ip administered once daily for 24 days. The data set is classed as organism-based. As to conditions: in vivo, 576 h, time 24 day.
For data set [6], the system named is NCI-H1299. Put plainly: Induction of apoptosis in human NCI-H1299 cells assessed as viable cells at 1.0 uM incubated for 48 hrs by AnnexinV-FITC/propidium iodide staining based flow cytometry analysis (reference value: 98.05 % ). The data set is classed as functional. As to conditions: read-out: Activity.
In data set [7] the test system is Epidermal growth factor receptor (Homo sapiens), P00533 [L858R,T790M]. The experiment in a line: Inhibition of EGFR L858R/T790M mutant phosphorylation in human NCI-H1975 cells preincubated under serum starvation for 8 hrs followed by compound addition measured after 48 hrs by Western blot analysis. The data set is classed as cell-based. As to conditions: dose 10-1000 nM, DDE = dose-dependent effect.

The test system is the same in data set [8]. The experiment in a line: Inhibition of EGFR L858R/T790M mutant phosphorylation in human NCI-H1975 cells at 1 uM measured after 8 hrs by Western blot assay. The data set is classed as cell-based.
Data set [9] can be described thus: Selectivity ratio IC50 for human NCI-H1299 cells expressing wild type EGFR to human NCI-H1975 cells expressing EGFR L858R/T790M. Type of data set: functional.
Data set [10] deals with Protein cereblon/Epidermal growth factor receptor (Homo sapiens) (UniProt P00533+Q96SW2). The experiment in a line: Protac activity at CRBN/EGFR in human NCI-H1975 cells assessed as induction of EGFR degradation pretreated for 12 hrs followed by compound washout and replaced with fresh medium for 1 hr and measured after 48 hrs post compound washout by Western blot analysis. The data set is classed as cell-based.

The source made the active and inactive calls. No cut-off for these calls is given here.

For the compound `C#CCN(CCCC(=O)Nc1cccc2c1CN(C1CCC(=O)NC1=O)C2=O)CCN(C)c1cc(OC)c(Nc2nccc(-c3cn(C)c4ccccc34)n2)cc1NC(=O)C=C` (stereo not drawn), the Activity in the data set with NCI-H1299 [1] is 0.48%; in the data set with HEK-293T, “Non-Toxic”; in the data set with NCI-H1299 [2] it was 0.37%; with NCI-H1299 [3], 0.22%; with NCI-H1975, 4.8%; in data set [5] it was “Non-Toxic”. Also, the half-maximal effective concentration (EC50) in data set [4] is 0.0132 µM. The viability at 1 µM with NCI-H1299 [6] is 97.8%. In addition, in data set [7], the inhibition entry was “Dde”. This compound also had an inhibition (INH) in data set [8] of 56%. Besides, the “Ratio IC50” value in [9] is reported as 2137. The result in data set [10] was Active.

In the case of `C#CCN(CCC(=O)Nc1cccc2c1CN(C1CCC(=O)NC1=O)C2=O)CCN(C)c1cc(OC)c(Nc2nccc(-c3cn(C)c4ccccc34)n2)cc1NC(=O)C=C` (stereo not drawn), the Activity with NCI-H1299 [1] was 0.39%; in the data set on HEK-293T it was “Non-Toxic”; with NCI-H1299 [2] it was 0.25%; in the data set on NCI-H1299 [3] it was 0.11%; in the data set with NCI-H1975, 6.59%; in [5], “Non-Toxic”. Moreover, the EC50 in data set [4] was determined as 0.0355 µM. In the data set with NCI-H1299 [6], the viability at 1 µM was found to be 97.5%. The inhibition entry in data set [7] is “Dde”. The inhibition (INH) in [8] was 58%. Moreover, the “Ratio IC50” value in data set [9] amounted to 1721.
